# Source: US20230121771A1, “A PHARMACEUTICAL COMBINATION OF AN ARTEMISININ COMPOUND, 5-AMINOLEVULINIC ACID OR METHYL-5-AMINOLEVULINIC ACID AND A CHEMOTHERAPEUTIC AGENT” (JLP Health GmbH, priority 2020, published 2023)
# Columns and labels:
# [1] = tested on: murine and human cancer cell lines; test: Cell viability of artemisinin treated cancer cell lines in presence and absence of 5-ALA (Alamar Blue, 48 h); assay type: cell-based; settings: 4T1, Mcf7, B16F10, 5-ALA 0.5 mM
# Protocol: (§1) For dosage responses, cells were seeded in 96-wells (25.000/ 96-well, in triplicate -where indicated) and subjected to compounds for 48 h. Cell viability was assessed using automated cell counting (high-throughput flow cytometry), Alamar Blue staining (Invitrogen, DAL1100) or CellTiter-Glo Luminescent Assay (Promega, G7570, according to the manufacturer’s protocol) respectively.
# [2] = tested on: human primary glioblastoma cell lines; test: Survival of artemisinin treated primary human glioblastoma cells upon 5-ALA (CellTiter-Glo, 72 h); assay type: cell-based; settings: three independently derived human primary glioblastoma cell lines
# Protocol: […] Cell viability was assessed using automated cell counting (high-throughput flow cytometry), Alamar Blue staining (Invitrogen, DAL1100) or CellTiter-Glo Luminescent Assay (Promega, G7570, according to the manufacturer’s protocol) respectively.
# [3] = tested on: neuroblastoma cells (SHSY5Y), Jurkat cells; test: Cell survival by automated cell counting in SHSY5Y and Jurkat cells; assay type: cell-based; settings: artemisinin 0.5 µM, 5-ALA 0.25 mM
# Protocol: as §1
# [4] = tested on: Myc overexpressing tumor organoids; test: ROS/DHE staining of dissociated CNS-PNET tumor organoids; assay type: cell-based, human; settings: especially in GFP-positive cancer cells
# Protocol: Treated cells were collected, washed with 1x HBSS (without Ca2+ and Mg2+), incubated with 1mM DHE (Dihydroethidium (Hydroethidine), Invitrogen, D11347) in 1x HBSS for 45 min at 37° C., washed twice and counterstained with DAPI or a viability dye (eBioscience™ Fixable Viability Dye eFluor™ 780, 65-0865-18) for 10 min on ice. Cells were then collected, strained and analysed using flow cytometry for DHE in the red fluorescent spectrum (PE channel).
# Cerebral (tumor) organoids were enzymatically and mechanically dissociated using 1x trypsin, 35-45 min incubation at 37° C., and gentle shaking. Organoids were singularised by careful resuspension, addition of differentiation medium and straining (Falcon Round-Bottom Tubes with Cell Strainer Cap, 5 mL, 35 µm nylon mesh cell strainer snap cap). Single cells in suspension were counterstained with DAPI or a viability dye (eBioscience™ Fixable Viability Dye eFluor™ 780, 65-0865-18), and analysed using flow cytometry (BD LSRFortessa HTS Cell Analyzer). The amounts of GFP-positive cells were analyzed.
# [5] = tested on: glioblastoma cell lines; test: 6-day cell survival assay (Cell Titer Glo 2.0), glioblastoma cell lines; assay type: cell-based; settings: 6-day treatment
# Protocol: Cell survival assays (FIGS. 12-19) were performed in 96-well plates in technical duplicates. Treatments started 24 hours post cell plating and lasted for 6-days prior to cell viability assessment with the Cell Titer Glo 2.0 Luminescent assay (Promega, G9242).
structure (smiles),measurement,setting,value
"NCC(=O)CCC(=O)O [5-ALA, 5-amino-4-oxopentanoic acid]",sensitivity to artemisinin under combinatorial treatment with 5-ALA,[1],gained hypersensitive to artemisinin
same,sensitivity to artemisinin cytotoxicity upon 5-ALA,[2],induced artemisinin hypersensitivity to artemisinin cytotoxicity
same,cell viability / cell death,[3],slightly reduced cell viability
same,"ROS levels (DHE staining, FACS)",[4],slightly induced ROS production
same,cell survival compared to untreated controls,[5],more potent than Methyl-5-ALA
